Here are results for 42 compounds from the SangsterLogP compilation.

Data set [1] can be described thus: from Afshan, A.; Jehangir, M.; Amin, W.; Mujahid, A. (2000). Study of various esters of ethylcysteine acid dimer as brain perfusion imaging agents and formulation into single vial kit for labelling with …. Conditions: pH 7.5.
The nature of data set [2]: from Nishimura, K.; Okajima, N.; Fujita, T.; Nakajima, M. (1982). Quantitative structure-activity studies of substituted benzylchrysanthemates. IV. Physicochemical properties and rate of progress of the ….
Data set [3] is described as follows: method code SF, from DOI: 10.1080/10826070801924857.
Data set [4] in a line: method code SF-AS, from PMID: 6540096. Conditions: pH 7.5.
Test in data set [5]: not given
The source holds these as a separate data set.

Test in data set [6]: not given
This is another data set of the same source.

Data set [7] in a line: method code SF-HPLC, from DOI: 10.1006/pest.1998.2384.
The nature of data set [8]: method code SF-HPLC, from PMID: 1854437. Conditions: pH 7.4.
Data set [9] in a line: from Comini, L.; Núñez Montoya, S.; Argüello, G.; Cabrera, J. (2006). Partition coefficient (log P) determination of anthraquinone derivatives isolated from Heterophyllaea pustulata Hook, f. (Rubiaceae). …. The following applies: pH 7.4.
A short description of data set [10]: method code SF-HPLC, from DOI: 10.1021/js950346l, PMID: 9109056.
A short description of data set [11]: method code SF-AS, from DOI: 10.1021/jm00296a014, PMID: 5418493.
A short description of data set [12]: method code SF-HPLC, from DOI: 10.1021/jf0483669, PMID: 15913295. Conditions: pH 7.4.
Data set [13] is described as follows: method code SF-HPLC, from DOI: 10.1021/jm030477w, PMID: 15084119. The following applies: pH 7.4.
Data set [14] can be described thus: method code G, from Wang, L.; Li, H.; Wang, X.; Zhang, Z. (1993). Determination of aqueous solubilities and partition coefficients of substitutive ethylketone congeners by generator column. Huanjing Huaxue, 12(2)151-154.
Data set [15] in a line: method code SF-AS, from DOI: 10.1248/cpb.28.3673.
Test in data set [16]: not given
The source holds these as a separate data set.

A short description of data set [17]: method code SF, from DOI: 10.1016/s0223-5234(99)80097-x. The following applies: pH 7.5.
A short description of data set [18]: method code SF-AS, from PMID: 3774812. Conditions: pH 4.0.
Data set [19] is described as follows: method code SF-RC, from DOI: 10.1021/jm000079i, PMID: 10956218. Conditions: pH 7.4.
Data set [20] can be described thus: method code SF, from DOI: 10.1023/a:1012119527214, PMID: 9453056. Conditions: pH 12.5.

`CNS(=O)(=O)Cc1ccc2[nH]cc(CCN(C)C)c2c1` showed a log partition coefficient (logP) of 1.1. With `CCCOC(=O)[C@H](CS)NCCN[C@@H](CS)C(=O)OCCC`, the logD in data set [1] was 2.5. Take `CC=CCOC(=O)[C@@H]1[C@@H](C=C(C)C)C1(C)C`: the lipophilicity (logP) in data set [2] stood at 5.09. Regarding `CN(C)CCN(Cc1ccccc1)c1ccccn1`, the logP was found to be 2.65. Take `CCCCCCCCOC(=O)OC[C@@H]1O[C@H](n2ccc(N)nc2=O)CS1`: in [3], the log partition coefficient (logP) amounted to 1.72. Compound `O=C1CN=C(c2ccccc2Cl)c2cc([N+](=O)[O-])ccc2N1` gave a log distribution coefficient (logD) in data set [4] of 2.5. With `CC(C)N(CCC(CCN1CCCCC1)(C(N)=O)c1ccccc1Cl)C(C)C` (configuration not stated), the lipophilicity (logP) in data set [5] stood at 4.78. In the case of `O=C(NCC(F)(F)F)NS(=O)(=O)c1cnccc1NC1CCCCCC1`, the lipophilicity (logP) in data set [6] came to 0.95.

`O=[N+]([O-])N=C1N(Cc2ccccc2)CCN1Cc1ccc(Cl)nc1` came in with a logP in [7] of 1.49. Take `CCCCCCOC(=O)n1cnc(C)c1CSCCNC(=NC#N)NC`: in data set [8], the log distribution coefficient (logD) stood at 3.1. In the case of `COc1c(C)c(O)cc2c1C(=O)c1ccccc1C2=O`, the pH-dependent lipophilicity (logD) in data set [9] was found to be 2.83. As for `CN1C(C(=O)Nc2ccccn2)=C(O)c2ccccc2S1(=O)=O`, the logP in data set [10] came to 1.86.

`O=C(O)C1c2ccccc2Cc2ccccc21`: in [11], the logP stood at 2.78. Same read-out and setting: the value for `CC(C(=O)O)(c1ccccc1)c1ccccc1` was 2.69. Compound `O=c1c(-c2ccc(O)cc2)coc2cc(O[C@@H]3O[C@H](CO)[C@@H](O)[C@H](O)[C@H]3O)ccc12` showed a logD in [12] of 0.32. Turning to `FCCCNc1ccc(-c2cn3cc(I)ccc3n2)cc1`, the logD in [13] was found to be 4.6. As for `CN(C)C(=O)O[C@H]1N=C(c2ccccc2)c2cc(Cl)ccc2N(C)C1=O`, the logD in [4] came out at 2.88. In [14], `Cc1ccc(SCC(=O)c2ccc(Cl)cc2)cc1` showed a lipophilicity (logP) of 3.43.

Take `Cc1cc(-c2ccc(N)c(C)c2)ccc1N`: the log distribution coefficient (logD) in data set [15] (pH 5.8) is 2.34.

In [6], `O=C(NC1CCCCCC1)NS(=O)(=O)c1cnccc1Nc1cccc(C(F)(F)F)c1` had a lipophilicity (logP) of 2.02.

Turning to `Cc1cc(=O)oc2c(C)c(OCC(O)CCl)ccc12` (configuration not stated), the logP in [16] amounted to 0.53. As for `CO[C@@]1(NC(=O)C(C(=O)O)c2ccc(O)cc2)C(=O)N2C(C(=O)O)=C(CSc3nnnn3C)CO[C@@H]21` (some centres not stated), in data set [15] (pH 2.0), the pH-dependent lipophilicity (logD) was -0.58. As for `NC(=O)C(CCN1CCCCC1)c1ccccc1Cl` (configuration not stated), in [5], the lipophilicity (logP) amounted to 2.46.

With `FCCNc1ccc(-c2cn3cc(I)ccc3n2)cc1`, in data set [13], the logD was determined as 4.41. In turn, `CCc1c(O)c(=O)ccn1CCOC(=O)c1ccccc1` showed a logD in data set [17] of 1.52.

For `Cc1c(O)cc2c(c1O)C(=O)c1ccccc1C2=O`, in [9], the pH-dependent lipophilicity (logD) was 2.36.

For `Cc1ccc(C(=O)CSc2ccccc2)cc1`, in [14], the log partition coefficient (logP) was found to be 2.7. `CCCCOC(=O)n1cnc(CSCCNC(=NC#N)NC)c1C` yielded a logD in data set [8] of 2.15. The compound `C[C@H](C(=O)O)c1ccc(-c2ccccc2)c(F)c1` gave a logD in data set [18] of 3.87. Compound `COc1ccc(Sc2ccccc2N(C)C)c(N)c1` returned a logD in data set [19] of 2.83. Compound `CCCCCCOC(=O)OC[C@@H]1O[C@H](n2ccc(N)nc2=O)CS1` returned a logP in data set [3] of 1.57. For `CCCN(CC)C(CC)C(=O)Nc1c(C)cccc1C` (configuration not stated), the pH-dependent lipophilicity (logD) in data set [20] was 3.22. In data set [20], `CCN(CC)CC(=O)Nc1c(C)cc(C)cc1C` returned a logD of 2.73. In the case of `O=C(O)Cc1sc(-c2ccccc2)nc1-c1ccc(Cl)cc1`, the logD in data set [18] worked out at 2.72.

`O=C(O)COC(=O)Cc1ccccc1Nc1c(Cl)cccc1Cl` gave a lipophilicity (logP) in data set [10] of 2.7.

In data set [7], `CCCCCCN1CCN(Cc2ccc(Cl)nc2)C1=N[N+](=O)[O-]` returned a logP of 2.2. Consider `C=CCC1(C(=O)OC)C(C=C(C)C)C1(C)C` (configuration not stated), for which, in [2], the logP is 4.89. In data set [12], `Oc1ccc([C@H]2COc3cc(O)ccc3C2)cc1` gave a log distribution coefficient (logD) of 3.2. On to `Cc1cc2oc(=O)cc(C)c2cc1OCC(O)CO` (configuration not stated), for which the log partition coefficient (logP) in [16] was 0.36. `CN(C)c1ccccc1Sc1ccc(Cl)cc1N` displayed a logD in data set [19] of 3.55. `Cc1c(O)c(=O)ccn1CCOC(=O)c1ccccc1` had a log distribution coefficient (logD) in data set [17] of 1.04. Compound `CCCCOC(=O)[C@H](CS)NCCN[C@@H](CS)C(=O)OCCCC` had a pH-dependent lipophilicity (logD) in [1] of 2.9.

Usually logP stands for a log measure of how a compound divides between an organic and an aqueous phase. Lower therefore signals lower lipophilicity. A word on the logD: it is the decadic logarithm of the distribution of all forms, ionised or not, between an organic phase and buffer at a given pH.
